Reference: patent publication US20050048108A1, “Sulphur-containing amphiphilic agents for the transfer of biologically active molecules into cells” (G.O.T. Therapeutics GMBH, priority 2000, published 2005)

Test system: HeLa (human cervical carcinoma), F98 (rat glioblastoma), IMR90 (human embryonic lung) cell lines
Test: Transfection of adherent cell lines with pUT 651 plasmid (lacZ / β-galactosidase reporter)
Format: cell-based
Settings: all investigated cell lines, versus Lipofectin, LipofectAMINE, DOTAP and DAC-30
Experimental: The gene transfer properties of the lipids according to the invention (lipid 9 (Sulfectin A) and lipid 10 (Sulfectin B)) were tested on various cell lines and were compared with the reagents known heretofore (FIGS. 3, 4 and 5). A plasmid coded for β-galactosidase was used as the reporter system. In the trials, the lipids were also mixed with, among other things, the neutral auxiliary lipid 1,2-dioleoyl-sn-glycero-3-phosphoethanolamine (DOPE). […] Among others a β-galactosidase expression up to 10 times higher was found. This is the more surprising in that in most cases (IMR90 and F98 cells) no admixture of an a helper lipid was necessary. With all the commercial lipids, on the other hand, a portion of DOPE was indispensable for an efficient gene transfer. The high gene transfer efficiency of the pure lipid is also advantageous for the production of the gene transfer reagent, since the formulation step of the cationic lipid and auxiliary lipid is omitted. […]
After a transfection time of 24 h, the medium is changed and the cells are incubated for a further 48 h. […] The lysate is treated with chlorophenol red β-galactopyranoside (Roche Diagnostics, 1 mg/ml in HBSS) as a substrate for β-galactosidase, and the optical density at different intervals is determined with a microplate reader (Dynex) (measurement wavelength 540 nm, reference wavelength 630 nm).

Compound	gene transfer (transfection) efficiency compared with the known lipids
CCCCCCCC/C=C\CCCCCCCC(=O)OCC(CCS(=O)(=O)CCCN)OC(=O)CCCCCCC/C=C\CCCCCCCC.O=C(O)C(F)(F)F (centres unmarked) [lipid 9, 3-[(3,4-dioleoyloxybutyl)-sulfonyl]propyl-1-ammonium trifluoroacetate]	markedly higher efficiency
CCCCCCCC/C=C\CCCCCCCC(=O)OCC(CC[S+]([O-])CCCN)OC(=O)CCCCCCC/C=C\CCCCCCCC.O=C(O)C(F)(F)F (centres unmarked) [lipid 10, 3-[(3,4-dioleoyloxybutyl)-sulfinyl]propyl-1-ammonium trifluoroacetate]	markedly higher efficiency
